Test results published in patent US8124356B2, “Methods of purifying zsig33” (ZymoGenetics, Inc., priority 1999, dated 2012).

Assays:
[1] = tested on: antral portion of the stomach; assay: Effects on gastrointestinal contractility (transducing crystals on antral portion of the stomach); type: in vivo, Sprague-Dawley rats
Protocol: Two male Sprague-Dawley rats, approximately 12 weeks old (Harlan, Indianapolis, Ind.) were anesthetized with urethane and their stomachs were exposed through a small abdominal incision. Two 2.4 mm transducing crystals (Sonometrics, Ontario, Canada) were placed on the antral portion of the stomach such that circular contractions could be monitored as a change in the distance between the two crystals. The crystals were attached with VETBOND TISSUE ADHESIVE (3M, St. Paul, Minn.).
10 ml of norepinephrine (NE) at 1 mM caused a reduction in the distance between the two crystals. The amplitude of the NE-induced decrease was approximately 50% of the acetylcholine-induced increase in distance. Both responses were transient.
A negative control of 10 ml of phosphate buffer solution (PBS) applied topically between the crystals had no effect.
A 14 amino acid zsig33 peptide (zsig33-1, as shown in Example 4) was dissolved in PBS and 10 ml was applied topically for a final concentration of 1 mg, 10 mg or 100 mg.

[2] = tested on: stomachs of fasted male Sprague-Dawley rats; assay: Effects on gastric emptying (transit of phenol red through the stomach); type: in vivo; settings: 1 μg applied topically to the stomach five minutes after gavage, measured 30 minutes after the gavage
Protocol: The effect of topically applied zsig33 peptide (amino acid 24 to 37 of SEQ ID NO: 2) on the transit of phenol red through the stomachs of fasted male Sprague-Dawley rats (Harlan, Indianapolis, Ind.) was evaluated. The rats (6 animals, 8 weeks old) were fasted 24 hrs prior to being anesthetized with urethane (0.5 ml/100 grams of 25% solution). After anesthetizing, the animals were orally gavaged with 1 ml of Phenol Red solution (50 mg/ml in 2% methylcellulose solution).
The stomach of each animal was exposed through a small abdominal incision and either 1 μg zsig33 peptide or a 14 amino acid control of a scrambled sequence peptide was applied topically to the stomach five minutes following the gavage. The amount of Phenol Red remaining in the stomach was determined by measuring optical density of the extracted stomach contents 30 minutes after the gavage.

[3] = Effects on body weight, food intake and glucose clearance; type: in vivo, ob/ob mice; settings: 1 mg/mouse orally twice daily for fourteen days, versus scrambled peptide
Protocol: Sixteen female ob/ob mice, 8 weeks old, (Jackson Labs, Bar Harbor, Me.) were adapted to a special 4 hour daily feeding schedule for two weeks. The were fed ad libitum from 7:30-11:30 am daily. After two weeks on the feeding schedule, the mice were divided into two groups of 8. One group was given 1.0 mg/mouse of zsig33-1 (14 amino acid peptide) and the other vehicle (a 14 amino acid scrambled sequence peptide) in […] sterile 0.1% BSQA by oral gavage just prior to receiving food, and at the end of the 4 hour feeding period. The mice were […] twice daily for fourteen days, during which time food intake and body weight was measured daily. On day 14, immediately after the second oral gavage of the zsig33-1 peptide, the mice were challenged orally with an 0.5 ml volume of 25% glucose. Retro-orbital bleeds were done to determine serum glucose levels immediately prior to administration of the zsig33-1 peptide or vehicle (t=30 min.), and also at 0, 1, 2, and 4 hours following the glucose challenge.

[4] = Effects on glucose absorption after oral glucose challenge; type: in vivo, ob/ob mice; settings: 100 mg orally, 30 minutes prior to an oral glucose challenge (0.5 ml of 25% glucose), serum glucose
Protocol: Eight female ob/ob mice, approximately 6 weeks old (Jackson Labs, Bar Harbor, Me.) were adapted to a 4 hour daily feeding schedule for two weeks. After two weeks on the feeding schedule, the mice were given 100 mg of a zsig33 peptide (zsig33-1, as shown in Example 4) in 100 ml sterile 0.1% BSA by oral gavage, immediately after their eating period (post-prandially). Thirty minutes later, the mice were challenged orally with a 0.5 ml volume of 25% glucose. Retroorbital bleeds were done to determine serum glucose levels. Blood was drawn prior to zsig33 dosing, prior to oral glucose challenge, and at 1, 2, 4, and 20 hours following the glucose challenge.

[5] = tested on: duodenum, jejunum, kidney and other harvested tissues; assay: Binding studies of FITC-labeled zsig33 peptides in situ (tail vein injection, fluorescent microscopy of tissue sections); type: in vivo, Balb C male mice; settings: FITC-labeled peptide, 0.5 ml (0.5 mg) tail vein, circulated 15 minutes, microscopy at 495 nm
Protocol: Ten week old Balb C male mice were anesthetized via intramuscular injection and tested for binding of zsig33 peptides in vivo.
Two peptides were tested: the first peptide, zsig33-1, (See Example 4) consisted of residues 24 to 37 of SEQ ID NO:2, and the second peptide, zsig33-2, consisted of residues 24 to 41 of SEQ ID NO:2. A single glycine was used as a negative control. Additionally, a “scrambled” negative control consisting of residues the first peptide which had been rearranged (SEQ ID NO:15) was also tested. The peptides and controls were coupled to fluorescein isothiocyantate (FITC, Molecular Probes, Eugene, Oreg.) in the following manner: The peptides, glycine control and FITC were dissolved in 0.1 M sodium bicarbonate at pH 9.0 to a concentration of 2.0 mg/ml for the peptides and glycine control and 5 mg/ml for FITC, avoiding exposure of the FITC to strong light. […] The buffer was changed daily and unbound FITC in the post-dialyzed buffer was measured by HPLC. […] Peptide- or glycine-bound FITC was determined by measuring the absorbance of the dialyzed FITC-bound material at 498 nm and dividing by the extinction coefficient of fluorescein, […]. The molar ratio of fluorescein to peptide (mole FITC/mole peptide) was then determined. […]

| Compound | amplitude of the NE-induced decrease relative to the acetylcholine-induced increase in distance ([1]; 10 ml of 1 mM applied topically) | change in the distance between the two crystals ([1]; 10 ml of 1 mM applied topically to the stomach, anesthetized rats) | reduction of the amount of Phenol Red remaining in the stomach compared to a scrambled peptide [2] | daily body weight [3] | daily food intake [3] | change in crystal distance (contractions) ([1]; 10 ml in PBS applied topically, 1 mg) | response in rate and amplitude of the contractions ([1]; 10 ml in PBS applied topically, 10 mg and 100 mg, compared with 1 mg) | post-prandial glucose absorption [4] | fluorescence in duodenum, jejunum and in the collecting ducts and convoluted tubules of the kidney compared to the glycine and "scrambled" controls [5] |
| --- | --- | --- | --- | --- | --- | --- | --- | --- | --- |
| NC[C@H](O)c1ccc(O)c(O)c1 [norepinephrine, reference compound] | approximately 50% | reduction | – | – | – | – | – | – | – |
| zsig33-1: 14 amino acid peptide corresponding to amino acid residue 24 (Gly) to amino acid residue 37 (Gln) of SEQ ID NO: 2 (GSSFLSPEHQRVQQ; listed as Homo sapiens) | – | – | approximately 25% | no affect | no affect | sustained, rhythmic increase and decrease in crystal distance | enhanced responses in both rate and amplitude | enhanced post-prandial glucose absorption | increased fluorescence |
| zsig33-2: peptide consisting of residues 24 to 41 of SEQ ID NO:2 (GSSFLSPEHQRVQQRKES; listed as Homo sapiens) | – | – | – | – | – | – | – | – | increased fluorescence |
